Results: patent US7897789B2, “Vitamin D receptor modulators” (Eli Lilly and Company, priority 2003, dated 2011)
Several values for one entry are separate records, joined by “and”; a condition that tells them apart may be missing. Equal values may be shown once. Read-outs that look alike come from different tables or passages of the source.

Legend:
DBF mice [1] = conditions: in vivo, po
Source text: The Mouse Hypercalcemia Assay
(§1) The Mouse Hypercalcemia Assay is a six day hypercalcemia test for toxicity and selectivity.
(§2) (4) Materials and Method for the Mouse Hypercalcemia Assay:
(§3) Weanling, virus-antibody-free, five to six weeks old female DBF mice (Harlan, Indianapolis, Ind.) are used for all the studies. Animals are allowed to acclimate to local vivarium conditions for 2 days. […] The animals then are divided into groups with 4-5 mice per group. Different doses of test compounds prepared in 10% Ethanol and 90% sesame oil are administered to mice orally via gavage for 6 days. 1α-25(OH)2D3 0.5 μg/kg/d was also given to one group of mice as the positive control. […] Raw data of group differences is assessed by analysis of variance (ANOVA) using Fisher's protected least significant difference (PLSD) where the significance level was P<0.05.

RXR-VDR heterodimer = target: T1, RXR-VDR heterodimer (Homo sapiens, UniProt P11473); assay: RXR-VDR heterodimerization assay (SaOS-2 cells); format: cell-based; conditions: Gal4-RXR / VP16-VDR-LBD luciferase reporter, Table 1
T1 construct: Add the Gal4-RXR-DEF and VP16-VDR-LBD; expressed in transfected cells; host or cells: SaOS-2 cells
T1 sequence (P11473 127-423 limits assumed): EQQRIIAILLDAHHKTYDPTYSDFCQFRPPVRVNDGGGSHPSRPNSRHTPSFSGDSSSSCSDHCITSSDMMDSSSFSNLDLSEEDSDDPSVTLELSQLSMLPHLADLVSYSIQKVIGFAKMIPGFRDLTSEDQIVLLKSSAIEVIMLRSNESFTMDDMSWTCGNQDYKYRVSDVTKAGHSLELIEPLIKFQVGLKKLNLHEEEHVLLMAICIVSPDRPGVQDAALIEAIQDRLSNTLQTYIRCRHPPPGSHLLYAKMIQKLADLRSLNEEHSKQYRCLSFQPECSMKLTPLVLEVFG
T1 sequence (P19793 201-462 partner limits assumed): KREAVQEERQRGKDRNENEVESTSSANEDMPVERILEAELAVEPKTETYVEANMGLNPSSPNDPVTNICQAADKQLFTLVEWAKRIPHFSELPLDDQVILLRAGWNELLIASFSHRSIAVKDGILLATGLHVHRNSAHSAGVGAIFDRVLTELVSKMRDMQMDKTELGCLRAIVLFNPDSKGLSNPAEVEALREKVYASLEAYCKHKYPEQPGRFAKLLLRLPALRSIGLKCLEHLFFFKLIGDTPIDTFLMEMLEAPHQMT
Method: 1. The RXR-VDR HeterodimerAssay:
This assay provides the VDR activity of a test compound.
(1) Materials and Method for RXR-VDR Heterodimerization Assay:
Luciferase Assay Reagent: • Use Steady-Glo Luciferase Reagent from Promega (Cat #E2550) Consists of: a. E2533 Assay Substrate, lyopholized product and b. E2543 Assay Buffer. • Thaw at room temperature • Store Cell Harvesting Aspirate media from culture flask, rinse cells with HBSS and aspirate. Add trypsin and incubate. When cells appear detached, resuspend cells in growth media. Transfer into a new flask with fresh growth media for passaging the cells. Plate well plates and two extra plates A. Cell Count Mix the cell suspension using pipette Use Hematocytometer to count the cells Load cell suspension onto the hemocytometer chamber Count cells. […] In sterile flask add cell suspension to plating media. Mix. Add cells/well. Place the cells in the incubator. Cells should be about 75% confluent prior to transfection. DAY 2: Transfection Step 1: DNA and Media Add plain DMEM media to tubes for mixing the DNA Add the Reporter gene pFR-LUC Add the Gal4-RXR-DEF and VP16-VDR-LBD Step 2: FuGENE and Media Prepare plain DMEM media in a ubes for mixing FuGENE Add FuGENE 6 Transfection Reagent Incubate Step 3: FuGENE, DNA and Media Complex Add FuGENE Media complex from step 2 to DNA Media complex from step 1 Incubate Step 4: FuGENE, DNA and Media Complex to-well plate Add FuGENE-DNA-Media complex from step 3 to each plate Incubate. […] Day 4: Luciferase Assay Read the plates after drug treatment Remove part of media from all the wells and leave remainder Add Steady-Glo Luciferase Reagent mixture/wells Incubate Count each well using a Luminescence counter, Top Count NXT by Packard
Set a delay between plates to reduce the background.

VDR = target: T2, VDR (Homo sapiens, UniProt P11473); assay: Caco-2 cell co-transfection assay (VDR CTF); format: cell-based; conditions: Caco-2 cells, pGal4-VDR-LBD luciferase co-transfection; Table 1
T2 construct: the receptor expression vector pGal4-VDR-LBD (10 ng); expressed in transfected cells; host or cells: Caco-2 cells
T2 sequence (P11473 127-423 limits assumed): T1 sequence (P11473 127-423 limits assumed)
Method: 2. The Caco-2 Cell Co-Transfection Assay:
The Caco-2 cell assay is an indicator for the undesirable condition of hypercalcemia. This co-transfection assay is a surrogate assay for in vivo calcemic activity of VDR ligands. […] Preferred assay results are greater than 1000 nM.
(2) Materials and Method for The Caco-2 Cell Assay:
Caco-2 cells, grown in phenol red free, DMEM (Invitrogen, Carlsbad, Calif.) containing 10% charcoal-stripped FCS (Hyclone, Logan, Utah), were transfected with Fugene 6 reagent (Roche Diagnostics, Indianapolis, Ind.). Cells (5000/well) were plated 18 h before transfection in a 96 well plate. The Cells were transfected with Gal4-responsive reporter pFRLuc (150 ng, Stratagene, La Jolla Calif.) and the receptor expression vector pGal4-VDR-LBD (10 ng), along with Fugene 6 reagent (0.2 μl/well). The DNA-Fugene complex was formed by incubating the mixture for 30 min at room temperature. The cells were transfected in triplicate for 5 h, and treated with various concentrations of VDR ligands (form 0.01 nM to 10,000 nM concentration range) 18 h post-transfection. The luciferase activity was quantified using Steady-Glo reagent kit (Promega, Madison, Wis.) as per manufacturer's specifications.

rat osteocalcin promoter = assay: OCN (osteocalcin) promoter assay; format: cell-based; conditions: Rattus norvegicus, 48 h, RG-15 (ROS 17/2.8) cells, 48 hr treatment; Table 1
Method: 3. The OCN (Osteocalcin) Promoter Assay
The OCN Promoter Assay is an indicator and marker for osteoporosis. […] Preferred assay results are less than 50 nM.
(3) Materials and Method for the OCN Promoter Assay:
The activation of osteocalcin by VDR ligands was evaluated in a rat osteoblast-like cell line RG-15 (ROS 17/2.8) stably expressing rat osteocalcin promoter fused with luciferase reporter gene. […] Confluent RG-15 cells maintained in DMEM/F-12 medium (3:1) containing 5% FBS, 300 μg/ml G418 and at 37° C. under 5% CO2/95% air atmosphere were trypsinized (0.25% trypsin) and plated into white opaque 96-well cell culture plates (25000 cells/well). After 24 hr, cells (in DMEM/F-12 medium+2% FBS) were treated with various concentrations of compounds, dissolved in DMSO. The final DMSO concentration remained at 0.01% (v/v). After 48 hr treatment, the medium was removed, cells were lysed with 50 μl of lysis buffer (From Luciferase reporter assay system, Roche Diagnostics, Indianapolis, Ind.) and assayed for luciferase activity using the Luciferase Reporter Gene Assay kit from Boehringer Mannheim as per manufacturer's specifications.

KERtr cells = assay: Keratinocyte proliferation assay; format: cell-based; conditions: Homo sapiens, 72 h, BrdU incorporation, Table 2, read-out: Kera. Prolif. IC50
Method: 5. The Keratinocyte Proliferation Assay
This Assay is indicative for the treatment of psoriasis.
(5) The Keratinocyte Proliferation Assay:
KERtr cells (Human skin keratinocyte transformed with a retrovirus vector, obtained from ATCC) were plated in 96-well flat-bottomed plates (3000 cells/well) in 100 μl keratinocyte serum free medium supplemented with bovine pituitary extract in the absence of EGF (Life Technologies, Rockville, Md.) and incubated at 37° C. for two days. The cells were treated with various concentrations of VDR ligands (ten-fold serial dilution from 10,000 nM to 0.1 nM in triplicate), dissolved in 100 μl keratinocyte serum free medium supplemented with bovine pituitary extract in the absence of EGF and incubated at 37° C. for 72 hr. […] Potency values (IC50) values were determined as the concentration (nM) of compound that elicited a half-maximal response.

IL-10 = assay: Human IL-10 induction assay in PBMCs; format: cell-based; conditions: PBMC; TPA/PHA treated human PBMCs; Table 2
Source text: 6. The IL-10 Induction Assay
This is an in vitro efficacy assay for psoriasis, abscess and adhesion. Psoriasis involves both keratinocytes and immune cells. IL-10 is a unique cytokine because it is anti-inflammatory and immunosuppressive. This assay tells us whether a VDRM is able to function as an agonist in PBMCs ([…]) or not.
(6) Materials and Method for Human IL-10 Induction Assay:
Isolation of Peripheral Blood Mononuclear Cells (PBMCs):
Stimulation of PBMC: • L. Prepare TPA in DMSO. • M. Dissolve PHA in water. • N. Plate TPA/PHA treated PBMCs in well plates. • O. Incubate.
Sample Collection and Assay: • S. Remove all the cells by centrifugation and assay the supernatant for IL-10 by immunoassay. • T. Perform IL-10 assay using anti-human IL-10 antibody coated beads, as described by the manufacturer (Linco Research Inc., St. Charles, Mo.). (8) CaT1 Assay

DBF mice [2] = assay: Mouse hypercalcemia assay; conditions: oral gavage for 6 days, serum ionized calcium 6 hours after last dosing; Table 1
Source text: The Mouse Hypercalcemia Assay
as §1, §2, §3

Question: `C=C1/C(=C\C=C2/CCC[C@]3(C)[C@@H]([C@H](C)CCCC(C)(C)O)CC[C@@H]23)C[C@@H](O)C[C@@H]1O` [AA, 1α,25-dihydroxyvitamin D3] was tested. Which “Mouse Hypercal” value (DBF mice [1]) did it give?
Answer: 0.06 µg/kg/day

Question: With `CCC(CC)(c1ccc(OCC(=O)C(C)(C)C)c(C)c1)c1cc2cc(C(=O)NCC(=O)O)ccc2s1` [Ex 19, [(2-{1-[4-(3,3-Dimethyl-2-oxo-butoxy)-3-methyl-phenyl]-1-ethyl-propyl}-benzo[b]thiophene-5-carbonyl)-amino]-acetic acid] as the molecule, how does the EC50 (RXR-VDR heterodimer) read?
Answer: 0.114 µM and 0.021 µM

Question: And the EC50 (VDR)?
Answer: 815 nM

Question: And the EC50 (rat osteocalcin promoter)?
Answer: 0.0047 µM

Question: And the IC50 (KERtr cells)?
Answer: 0.016 µM

Question: And the IC50 (IL-10)?
Answer: 0.149 µM

Question: What about the “Mouse Hypercal” value (DBF mice [2]) of the same molecule?
Answer: >300 µg/kg/day

Question: For `CCC(CC)(c1ccc(OCC(=O)C(C)(C)C)c(C)c1)c1cc2ccc(C(=O)NCC(=O)O)cc2s1` [Ex. 11, [(2-{1-[4-(3,3-dimethyl-2-oxo-butoxy)-3-methyl-phenyl]-1-ethyl-propyl}-benzo[b]thiophene-6-carbonyl)-amino]-acetic acid], which EC50 (RXR-VDR heterodimer) is on record?
Answer: 0.045 µM

Question: And the EC50 (VDR)?
Answer: 299 nM

Question: What about the EC50 (rat osteocalcin promoter) of the same molecule?
Answer: 0.0002 µM

Question: And the IC50 (KERtr cells)?
Answer: 0.002 µM

Question: What about the IC50 (IL-10) of the same molecule?
Answer: 0.01 µM

Question: What about the “Mouse Hypercal” value (DBF mice [2]) of the same molecule?
Answer: >300 µg/kg/day
